Legend:
[1] = The Merck Index, 9th edition (#221); cited from earlier work
NS-1 myeloma cells [2] = assay: NS-1 myeloma in inoculated mice, early intervention; type: in vivo
From the text: To assure NS-1 propagation in vivo it is essential to remove DMSO (the cryostatic agent dimethyl sulfoxide) through several medium changes and dilutions; this also serves to maintain the cells in log-phases growth. […] The mice were maintained with Wayne Rodent Blox (Wayne Research Animal Diets, Chicago, Ill., USA) ad lib. and tap water.
The inoculated mice were compared to a) untreated controls and b) to carrier-injected (saline-injected) controls.

NS-1 myeloma cells [3] = type: in vivo; conditions: single mouse, 100 μg/kg; tumor cells remained in skeletal muscle, subcutaneous tissue, a mammary gland
Description: NS-1 myeloma cells (ATCC TIB 18, P3/NS1/1-Ag4-1) were employed as inoculant; these cells have proven to be about 90% effective in establishing myelomas in mice according to the exemplified procedure, and the untreated myelomas are substantially fatal within about two weeks.
The cells were grown for several passages (preferably one week) in a sterile environment consisting of RPMI 1640 (Whittaker M. A. Bioproducts, Walkersville, Md., USA) containing 10% fetal calf serum (Hyclone Laboratories, Logan, Utah, USA), 2 mM L-glutamine, 5,000 units of penicillin, and 5 mg streptomycin in 75 cm^2 polystyrene tissue-culture flasks (Corning Glassworks, Corning, N.Y., USA) in a humidified chamber at 37° C. and under 6% CO2. To assure NS-1 propagation in vivo it is essential to remove DMSO (the cryostatic agent dimethyl sulfoxide) through several medium changes and dilutions; this also serves to maintain the cells in log-phases growth. […]
Wasting of the tumor and not the mouse proper was confirmed by weighing the debulked carcass. […] It was thus tentatively determined that the bone demineralized due to rapid growth of the tumor resulting in the fracture, a process which requires calcium and phosphate, and which would also explain the subsequent rapid extraskeletal deposition of calcium phosphate as the tumor was resorbed.

[4] = test system: human peripheral blood leukocytes (HPBLs); assay: Non-antigen-specific immunoglobulin synthesis and secretion by HPBLs, protein-A facilitated plaque assay (Ig-PFC); type: cell-based
From the text: FIG. 2 illustrates data from a series of experiments designed to assess the effect of β-alethine on non-antigen-specific immunoglobulin synthesis and secretion in vitro by human peripheral blood leukocytes (HPBLs), generally characterized as a peripheral lymphoid organ primarily populated by medium-sized, mature lymphocytes. In these experiments, blood was taken from healthy male humans; the blood was then defibrinated on glass beads, and the leukocytes separated by centrifugation (buffy coat technique). Residual red blood cells were lysed with a brief treatment with 0.85% ammonium chloride. The leukocytes were counted and dispensed into 24 well tissue culture trays (LUX, Flow General, McClean, Md., USA) in 1 ml of RPMI 1640 basal medium supplemented with penicillin, streptomycin, 10% fetal calf serum, and L-glutamine. β-alethine was added to test cultures at various concentrations in 30 microliter doses. The cells were harvested as indicated in FIG. 2 at various times between 72 and 144 hours of culture and tested for antibody production using a conventional protein-A facilitated plaque assay (A-PFC or Ig-PFC). […] In addition, aliquots of cells were also tested for proliferation status by treating them with 0.5 μCi of tritiated thymidine (6-9 Ci/mole) followed by assessing the level of incorporation of radioactivity into newly synthesized DNA. […]

[5] = test system: IMR-90 human fetal lung fibroblasts; assay: Maximum population doubling level (PDL) of IMR-90 fibroblasts, delay of cellular senescence; type: cell-based
From the text: This cell line is available from the American Type Culture Collection (ATCC, Bethesda, Md., USA) and is used as a standard for in vitro cellular senescence studies. Cellular senescence is loosely defined as those cellular process(es) that together result in the cell's inability to replenish itself in culture. This model represents aging processes in vivo, and cell lines developed from humans of different ages have PDL's in vitro which are inversely related to the chronological age of the donor. The IMR-90 cells depicted in FIG. 1 were grown under ideal conditions in McCoy's 5A synthetic medium supplemented with HEPES buffer at 10 mM; 100 units penicillin G/ml and 100 μg streptomycin/ml at standard concentrations; new born calf serum (NBCS) at 20% (V/V); and L-glutamine at 2 mM. The treated cell cultures were augmented with different concentrations of β-alethine (as indicated) dissolved in phosphate-buffered saline (PBS)—-always in a standard volume of 30 microliters per culture. […] The cells were then washed twice with the complete medium and counted in a double Neubauer hemacytometer; 2 million cells were aliquoted into a fresh tissue culture flask (T-75, polystyrene by LUX, Flow General, McClean, Md., USA) with 20 ml of fresh complete medium. […]

Murine hepatocytes = assay: Adaptation of culture-resistant hepatocytes to culture (colony count); type: cell-based, BALBc/J mice
From the text: FIG. 4 illustrates data from a single experiment designed to study the use of β-alethine for adapting cells to culture. The culture-resistant cells employed (hepatocytes) were taken from in vivo to in vitro growth. Murine hepatocytes were chosen owing to their being especially difficult to adapt to culture. […] In this experiment a single liver lobe from one of the BALBc/J mice was excised, pressed through a 90 mesh stainless steel screen, washed, and placed in T-25 tissue culture flasks (10 for LUX, Flow General, McClean, Md., USA). All cultures were maintained in 10 ml of the same medium as described in Example III (RPMI-1640 plus fetal calf serum plus pen/strep plus L-glutamine) and the test cultures exposed to various concentrations of β-alethine as indicated in FIG. 4. […] It was possible to obtain some viable colonies from the control cultures, but only if 10- to 20-fold higher initial cell concentrations were used; therefore the β-alethine was between 500- and 1000-fold more efficient in adapting murine hepatocytes to in vitro culture than control, i.e., saline-treated medium. […] The effect is again dose-dependent, as illustrated.

[6] = i.p., Monday, Wednesday, Friday from day 2 through day 47

## NCCC(=O)NCCS [β-aletheine]
[1]
  stability in air and aqueous solutions: unstable in air and aqueous solutions

## NCCC(=O)NCCSSCCNC(=O)CCN [β-alethine, N,N′-bis-(β-alanyl-2-aminoethyl) Disulfide]
NS-1 myeloma cells [2]; 10 pg/kg mouse
  deaths: two deaths
NS-1 myeloma cells [2]; 10 μg/kg
  normal weight gain of the mice: not significantly
NS-1 myeloma cells [2]; 10 μg/kg, one mouse
  persistence of the palpable tumor before regression: 20 days
NS-1 myeloma cells [2]; 100 μg/kg
  normal weight gain of the mice: slightly inhibited
NS-1 myeloma cells [2]; at about 10 pg/kg or 1 ng/kg, without treatment 75% euthanized or died
  fraction of animals that ultimately contracted tumor: one-third to two-thirds
NS-1 myeloma cells [2]; at about 10 μg/kg or 100 μg/kg
  mice developing a palpable tumor: only one mouse developed a palpable tumor
NS-1 myeloma cells [2]; [6]
  therapeutic minimal threshold (lower end of effective range) for preventing onset of NS-1 myeloma: 10 pg/kg mouse
  upper end of effective concentration range for preventing onset of NS-1 myeloma: 100 μg/kg mouse
NS-1 myeloma cells [2]; untreated controls typically developed ascites
  morphology of tumors developing under therapy: with few exceptions solid masses
NS-1 myeloma cells [3]
  tumor cells in remaining organs (histology): none of the remaining organs contained tumor cells
[4]; HPBLs
  optimal concentration for immunoglobulin production: about 5 nanograms/ml culture
[4]; dose-dependent, 72 to 144 hours of culture
  immunoglobulin production relative to untreated control: approximately 60 times the untreated control levels
[5]; absolute terms, factor of 2 raised to the power 55
  increase in cell number (biomass): 3.6×10^16 fold
[5]; augmentation of growth versus untreated cells
  life expectancy of the cells: doubling of the life expectancy
Murine hepatocytes; 10 ng/ml, no colonies in the control culture
  colonies of hepatocytes observed: approximately 50 colonies
Murine hepatocytes; long-term culture, in contrast to control cells
  stability of treated cells in culture: stable in culture

From US20040110680A1, “Beta-alethine use in cell culture and therapy” (Regents of the University of New Mexico, priority 1990, published 2004)
